We go through one compound from patent publication US6949558B2, “Enhancement of taxane-based chemotherapy by a CDK1 antagonist” (Yale University, priority 2001, dated 2005).

Assay [1] relates to p34^cdc2 kinase activity (MPM-2 epitope) in HeLa cells. Put plainly: MPM-2 mitotic phosphoepitope expression (p34^cdc2 kinase activity) in HeLa cells. Type of assay: cell-based, human. The conditions noted are these: HeLa.
For assay [2], the system named is survivin expression in MCF-7 cells. Description: Survivin expression by Western blotting in MCF-7 cells. Type of assay: cell-based, human. Here is the method:
(§1) Cell Cultures, Proteins and Antibodies: Breast carcinoma MCF-7 and cervical carcinoma HeLa cells (American Type Culture Collection, Manassas, Va.) were maintained in culture according to the manufacturer's specifications. For treatment with genotoxic agents, HeLa or MCF-7 cells were incubated with vehicle (DMSO) or taxol (2 μM, Sigma Chemical Co., St. Louis, Mo.), adriamycin (100 nM, Sigma), cis-platin (3 μM, Sigma) or subjected to ultraviolet B (UVB) irradiation at 50 or 300 J/m^2. In some experiments, HeLa or MCF-7 treated with taxol, adriamycin or UVB as described above were incubated with inhibitors of transcription (actinomycin D, 1 μg/ml) or translation (cycloheximide, 2 mg/ml) before determination of protein expression by Western blotting. […] A replication-deficient adenovirus encoding wild type survivin (pAd-Survivin) or control encoding Green Fluorescence Protein (pAd-GFP) was generated using the pAd-Easy system as described previously (M. Mesri et al. (2001) J. Clin. Invest. 108: 981-90), and propagated in HEK293 cells with purification by CsCl banding. […] Antibodies to p34^cdc2 or bcl-2 were obtained from Pharmingen (San Diego, Calif.) and R&D, respectively. An antibody to β-actin was from Sigma and antibodies to MPM-2 mitotic phosphoproteins was from Upstate Biotechnology (Lake Placid, N.Y.).
(§2) In some experiments, total RNA was extracted from MCF-7 cells at various time intervals after adriamycin treatment, and hybridized with 32 P-labeled survivin cDNA as described previously. Radioactive bands were detected by autoradiography. […] In other experiments, samples were transferred to nylon membranes and analyzed by Western blotting with antibodies to p34^cdc2 (1 μg/ml), survivin (2 μg/ml), or survivinT34* (5 μg/ml).
A general note: A western blot detects proteins with antibodies after separation by electrophoresis.

In assay [3] the test system is survivin expression in HeLa cells. Put plainly: Survivin expression by Western blotting in HeLa cells. Type of assay: cell-based, human. How it is done: as §1, §2
In other experiments, HeLa cells were treated with taxol (0.2 μM) for 16 h followed by the DNA damaging agent adriamycin (100 nM, Sigma) or the nucleoside analog 5-Fluorouracil (500 μM, Sigma) for 8-32 h at 37° C. […] In some experiments, HeLa cells were transfected by lipofectamine with a minimal survivin promoter construct upstream of a luciferase reporter gene (pLuc-cyc1.2), as described (F. Li et al. (1998) Nature 396: 580-584). Cells were treated with taxol (2 μM) or UVB (50 J/m2), and analyzed for changes in luciferase activity at increasing time intervals (12-36 h) in a luminometer. Luciferase values were normalized to β-galactosidase expression. […] The immune complexes were separated by SDS gel electrophoresis and analyzed with antibodies to survivin or a-survivinT34* by Western blotting.

The target of assay [4] is p34^cdc2-cyclin B1 (Homo sapiens, UniProt P06493). Put plainly: In vitro kinase assay with baculovirus-expressed p34^cdc2-cyclin B1. Type of assay: biochemical. The conditions noted are these: 100 nM flavopiridol. How it is done:
(§3) A. In vitro kinase assay. […] Radioactive bands were detected by autoradiography. […] The immune complexesb were analyzed by Western blotting (WB) with an antibody to Thr^34-phosphorylated survivin (a-survivinT34*, top panel) or with an antibody to survivin (a-survivin, lower panel) followed by chemiluminescence. For all panels, relative molecular weight markers in kDa are shown on the left.
as §2

The target of assay [5] is T1, p34^cdc2 (Homo sapiens, UniProt P06493).
T1 construct: endogenous in cells; host or cells: HeLa cervical carcinoma cells (ATCC)
Description: H1 phosphorylation by p34^cdc2 immunoprecipitated from treated HeLa cells. Type of assay: cell-based. To be noted: increasing concentrations of flavopiridol, 24 h. Here is the method:
as §3, §2

Assay [6] concerns survivin phosphorylation on Thr^34 in HeLa cells. Description: Survivin phosphorylation on Thr^34 in HeLa cells (immunoprecipitation, Western blotting). Format: cell-based, human. The conditions noted are these: increasing concentrations of flavopiridol, 24 h. Here is the method: as §3, §2
Luciferase values were normalized to β-galactosidase expression.

The subject of assay [7] is survivin phosphorylation on Thr^34 in MCF-7 cells. Put plainly: Survivin phosphorylation on Thr^34 in MCF-7 cells. Type of assay: cell-based, human. To be noted: flavopiridol in the presence of 100 nM adriamycin. How it is done: as §2
Assay [8] relates to Bcl-2 expression in HeLa cells. Description: Bcl-2 expression by Western blotting in HeLa cells. Type of assay: cell-based, human. To be noted: flavopiridol, 48 h. How it is done: A. Concentration-dependence. […] B. Time-course. […] C. […] The experimental conditions are the same as in A, except that flavopiridol-treated HeLa cells were analyzed by Western blotting with an antibody to Bcl-2. D. Effect of genistein or TNF a on survivin expression. HeLa cells were treated with the tyrosine kinase inhibitor genistein (25 μM) or TNF a (5 ng/ml) for 48 h, harvested and analyzed for survivin expression by Western blotting. For all panels, relative molecular weight markers in kDa are shown on the left. E. Flavopiridol-induced apoptosis. […] The percentage of apoptotic cells with sub-G1DNA content is indicated. Insert, nuclear morphology of apoptosis (DNA fragmentation, chromatin condensation) in untreated or flavopiridol-treated HeLa cells, by DAPI staining.
as §2

Assay [9] has as its system MCF-7 xenografts. Type of assay: in vivo. To be noted: adriamycin 2 mg/kg or flavopiridol 15 mg/kg alone, i.p. The text has this: Each complete cycle was separated by 2 d without treatment.
This test generates a P value testing the null hypothesis that the survival curves are identical in the overall populations.

Assay [10] deals with HeLa cells. Put plainly: Apoptosis by DNA content analysis and flow cytometry in HeLa cells. Format: cell-based, human. The conditions noted are these: increasing flavopiridol concentrations, 48 h. For orientation: A flow cytometer gives signals particle by particle.

p34^cdc2-cyclin B1, sequence (P06493 whole entry): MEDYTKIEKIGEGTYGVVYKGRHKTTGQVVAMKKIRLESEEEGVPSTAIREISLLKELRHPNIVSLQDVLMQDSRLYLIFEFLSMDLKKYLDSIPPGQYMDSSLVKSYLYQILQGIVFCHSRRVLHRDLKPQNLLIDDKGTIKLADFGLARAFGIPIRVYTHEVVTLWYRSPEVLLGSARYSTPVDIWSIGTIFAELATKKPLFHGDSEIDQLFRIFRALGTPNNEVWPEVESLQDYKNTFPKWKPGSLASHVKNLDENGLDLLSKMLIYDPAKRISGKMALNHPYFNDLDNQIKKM
p34^cdc2-cyclin B1, sequence (P14635 whole entry partner): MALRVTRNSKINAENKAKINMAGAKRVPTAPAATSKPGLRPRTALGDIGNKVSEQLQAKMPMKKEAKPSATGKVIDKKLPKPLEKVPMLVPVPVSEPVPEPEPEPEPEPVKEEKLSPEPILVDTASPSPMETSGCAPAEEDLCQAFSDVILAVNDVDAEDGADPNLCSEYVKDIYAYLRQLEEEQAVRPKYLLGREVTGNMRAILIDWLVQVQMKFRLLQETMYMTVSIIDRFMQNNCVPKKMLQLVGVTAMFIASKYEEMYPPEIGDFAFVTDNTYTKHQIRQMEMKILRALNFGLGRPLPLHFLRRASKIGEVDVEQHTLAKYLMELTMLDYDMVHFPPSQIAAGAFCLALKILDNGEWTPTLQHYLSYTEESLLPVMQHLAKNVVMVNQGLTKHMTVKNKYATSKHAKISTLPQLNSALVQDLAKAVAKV
T1 sequence (P06493 whole entry): as the sequence (P06493 whole entry) above
T1 sequence (P14635 whole entry partner): as the sequence (P14635 whole entry partner) above

Turning to `CN1CC[C@H](c2c(O)cc(O)c3c(=O)cc(-c4ccccc4Cl)oc23)[C@H](O)C1` [flavopiridol], the “MPM-2 mitotic phosphoepitope expression” value is reported as “partially inhibited MPM-2 expression” in assay [1] (taxol 0.2 μM 16 h then Cdk inhibitor for 16 h (Purvalanol A 10 μM, alsterpaullone 20 μM, flavopiridol 250 nM, olomoucine 400 μM)) and “suppressed mitotic phosphoprotein expression” in assay [1] (taxol 0.2 μM 16 h then Cdk inhibitor for 32 h). Besides, the survivin levels entry is on record as “suppressed survivin levels to background values of untreated cultures” in assay [2] (anti-cancer agents (adriamycin, UVB) 18 h followed by flavopiridol 72 h) and “did not significantly affect survivin levels” in [2] (flavopiridol alone 100 nM for 72 h). Also, the survivin expression entry in assay [3] (1 and 25 nM flavopiridol and between 12 and 72 hours) was “modest increase in survivin expression”; in assay [3] (flavopiridol 100 nM, 84-96 h treatment) it was “Nearly complete loss of survivin expression”; in assay [3] (higher flavopiridol concentrations, 24 h), “complete loss of survivin expression”. Further, the “survivin expression, concentration dependence” value in assay [3] (increasing flavopiridol concentrations, 48 h) is recorded as “concentration-dependent decrease in survivin expression”. Further, in assay [4], the “phosphorylation of H1 and wild type survivin by p34^cdc2-cyclin B1” value was “suppressed phosphorylation of H1 and wild type survivin”. Also, the “H1 phosphorylation by immunoprecipitated p34^cdc2” value in [5] is recorded as “dose-dependent inhibition of H1 phosphorylation”. Also, the “survivin phosphorylation on Thr^34” value in assay [6] was “concentration-dependent inhibition of phosphorylation on Thr^34”; in [7], “suppressed survivin phosphorylation on Thr^34”. Further, in assay [8], the Bcl-2 expression entry is “did not affect expression of antiapoptotic Bcl-2”. Moreover, the “kinetics of tumor growth vs vehicle” value in [9] was “did not affect the kinetics of tumor growth”. In addition, the “population with hypodiploid (apoptotic) DNA content” value in [10] is “concentration-dependent increase in the population with hypodiploid (apoptotic) DNA content”.
